# Source: US20220031798A1, “METHODS AND COMPOSITIONS FOR THE TREATMENT OF OPIOID DEPENDENCE AND FOR THE TREATMENT OF PAIN” (Duke University, priority 2018, published 2022)
# “Also recorded” adds a separate entry of the source. Residues, ends and D or L forms follow the SMILES beside them.
# Columns and labels:
# [1] = tested on: morphine-dependent Sprague-Dawley rats; assay: Naloxone-precipitated opioid withdrawal signs after 5-day morphine regimen; format: in vivo, rat; settings: for Withdrawal signs after naloxone challenge on Day 9: Study 2: adolescent male and female rats, 5 days morphine, then 3 days ketamine 1 mg/kg bid or rapastinel 5 mg/kg alternate days i.p., naloxone 1 mg/kg; for Withdrawal signs after naloxone challenge on day 9, adolescent vs adult: Study 3: adolescent and adult rats
# Procedure: Male and female adolescent and adult Sprague-Dawley rats (PN 28-30 and PN 60-75) from Charles River Laboratories were treated with a 5-day, increasing dose morphine regimen (5 mg/kg bid, increasing 5 mg/kg/day to 25 mg/kg) to induce opioid dependency. Animals were group-housed in a 12/12 light/dark cycle with free access to water and standard lab chow. Agents were administered by intraperitoneal injection. In Study 1, animals received morphine (25 mg/kg) on day 6 followed 1 hour later by a naloxone challenge (1 mg/kg) and withdrawal behaviors were quantified as described by Gellert and Holtzman (J Pharmacol Exp Ther. 1978; 205(3):536-546). A second morphine/naloxone challenge was given 21 days later (study day 27). In Study 2 (see FIG. 1), male and female adolescent rats received the same morphine treatment, but on day 6 they received naloxone only (1 mg/kg) to precipitate withdrawal and withdrawal signs (wet dog shakes, diarrhea, mastication, salivation, ptosis and abnormal posture) were assessed as in Study 1. Then animals received saline, ketamine (1 mg/kg, bid) or rapastinel (5 mg/kg on alternate days). On day 9, animals received a second naloxone challenge (1 mg/kg) without a previous morphine treatment, and withdrawal signs were quantified to measure efficacy of ketamine and rapastinel. Study 3 compared the ability of rapastinel to accelerate the loss of opioid withdrawal signs in adult and adolescent rats and Study 4 compared rapastinel effects in male and female adults. Treatment results were analyzed by sequential 3-way (age×sex×treatment) and 1 way (treatment) ANOVA using NCSS followed by post-hoc Fishers LSD multiple comparison test to compare differences between groups. All experiments were approved by the Duke University IACUC and conducted in accordance with the NIH Guide for the Care and Use of Laboratory Animals.
# Opioid withdrawal: Animals are treated with saline or naloxone as described. Ten minutes later they are scored by a modification of the Gellert/Holtzman scale for wet dog shakes, diarrhea, mastication, salivation, ptosis and abnormal posture.
# GluR1 = GluR1 expression in medial prefrontal cortex by Western blot; format: in vivo, rat; settings: mPFC dissected at end of treatment
# Procedure: The medial prefrontal cortex (mPFC) Brain Region is responsible for decision making in the context of reward (opioids) and penalty (withdrawal). Rats were treated with morphine in accordance with the methods of Example 1. The mPFC was dissected from rats at end of treatment and GluR1 expression levels were measured with a Western Blot test.
# [2] = animal models; cited from earlier work
# [3] = humans; cited from earlier work
# [4] = animal models (Moskal et al., 2016); cited from earlier work
# morphine-dependent rats = assay: Withdrawal-precipitated hyperalgesia, von Frey test of pain sensitivity; format: in vivo, rat
# Source text: FIG. 6. Schematic for withdrawal-precipitated hyperalgesia studies and schematic for von Frey test of pain sensitivity.
# There was no difference in hyperalgesia caused by morphine withdrawal before treatment; there was significant expression of naloxone-precipitated hyperalgesia in morphine dependent animals.
# [5] = tested on: adult male and female rats; assay: Relapse to morphine conditioned place preference (CPP); format: in vivo, rat; settings: rapastinel 5 mg/kg during extinction days 6-9 and before relapse test, morphine 2.5 mg/kg
# Procedure: CPP and extinction were conducted in adult male and female rats with a biased CPP procedure adapted from Mueller et al. (Mueller et al., Behavior. Brain Res 136: 389-397(2002)). CPP is conducted in a two-sided chamber. Side 1 had white walls and plexiglass flooring, and Side 2 had black walls and plastic mesh flooring (preferred side).
# Rats went through a conditioned place preference procedure involving daily pairing with saline and morphine (2.5 mg/kg) on opposite sides of the CPP apparatus for 4 days. On habituation day (day 1), animals were allowed to explore the whole apparatus for 30 minutes. On days 2-4, rats were restricted to Side 1 for morphine (2.5 mg/kg sc) and Side 2 for saline (alternated am and pm daily). On day 5 they received a test of conditioning in which they were allowed to explore the whole apparatus. For the next 4 days (days 6-9) they received daily saline or rapastinel (5 mg/kg) 30 minutes before twice daily extinction trials in which animals received saline on both sides of the apparatus. They received an extinction test in which they were allowed to explore the entire apparatus on day 10, and then a relapse test on day 11 in which they received a dose of saline or rapastinel, followed by saline or 2.5 mg/kg of morphine and were allowed to explore the apparatus.
# N=5 for rapastinel and 3 for saline.
structure (smiles),measurement,setting,value
CNC1(c2ccccc2Cl)CCCCC1=O (stereo not drawn) [ketamine],Withdrawal signs after naloxone challenge on Day 9,[1],not ketamine extinguished naloxone-precipitated withdrawal; also recorded: not ketamine caused an enhanced loss of opioid withdrawal signs; also recorded: not ketamine accelerated loss of withdrawal signs; also recorded: only marginally effective
CN1CC[C@]23c4c5ccc(O)c4O[C@H]2[C@@H](O)C=C[C@H]3[C@H]1C5 [morphine],GluR1 expression in the mPFC,GluR1,higher expression of GluR1; also recorded: significantly (p<0.001) higher GluR1 expression
C=CCN1CC[C@]23c4c5ccc(O)c4O[C@H]2C(=O)CC[C@@]3(O)[C@H]1C5 [naloxone],Withdrawal response to morphine/naloxone challenge on Day 6,"[1]; Study 1: 5 days morphine, morphine 25 mg/kg then naloxone 1 mg/kg 1 hour later, adolescent and adult rats",elicited a robust withdrawal response
N[C@@H]1CON=C1O [d-cycloserine],CPP extinction and naloxone place aversion,[2],facilitated CPP extinction and naloxone place aversion
same,Half-life,[3],short half-life
"C[C@@H](O)[C@H](N)C(=O)N1CCCC1C(=O)N1CCC[C@H]1C(=O)N[C@H](C(N)=O)[C@@H](C)O (stereo partly drawn) [Rapastinel, rapastinel] (HELM PEPTIDE1{T.[O=C(C1CCCN1[*:1])[*:2]].P.T.[am]}$$$$V2.0)",Withdrawal signs after naloxone challenge on Day 9,[1],extinguished naloxone-precipitated withdrawal; also recorded: caused an enhanced loss of opioid withdrawal signs; also recorded: accelerated loss of withdrawal signs
same,"Withdrawal signs after naloxone challenge on day 9, adolescent vs adult",[1]; 5 days morphine then 3 days saline or rapastinel,extinguished naloxone-precipitated withdrawal comparably in adolescent and adult rats; also recorded: accelerated extinction of opioid withdrawal at both ages; also recorded: significantly enhanced recovery from opioid dependence in both adolescent and adult rats
same,"Withdrawal signs after naloxone challenge on day 9, adolescent vs adult","[1]; 5 days morphine then 3 days saline or rapastinel, listed as rapastinel",effective
same,"Withdrawal signs after naloxone challenge on day 9, male vs female","[1]; Study 4: male and female rats, 5 days morphine then 3 days saline or rapastinel",extinguished naloxone-precipitated withdrawal comparably in male and female rats
same,Negative side effects during treatment,[4],has not been shown to produce any negative side effects
same,Hyperalgesia scores,"morphine-dependent rats; morphine-dependent rats, Day 9 following treatment",trend towards a return to baseline (SS) hyperalgesia scores; also recorded: blunts hyperalgesia
same,Baseline (SS) hyperalgesia response,morphine-dependent rats; saline (morphine-naive) rats,does not alter baseline (SS) response
same,"Difference in time spent on drug-paired side, day 11 (relapse test) vs day 10 (extinction trial)",[5],blocks relapse to conditioned place preference
same,"Difference in time spent on drug-paired side, day 11 (relapse test) vs day 10 (extinction trial)",[5]; listed as rapastinel,blunted morphine-induced relapse
same,GluR1 expression in the mPFC,GluR1,no significant effect
